{
  "source": "patent US20260102413A1",
  "about": "“TREATING PAIN ASSOCIATED WITH CENTRAL SENSITIZATION” (Medicon Pharmaceuticals, Inc., priority 2022, published 2026)",
  "key": {"STZ-diabetic rats": {"tested_on": "STZ-diabetic rats", "type": "in vivo, rat", "details": "rat, in vivo", "from_the_text": "The animal model corresponds to that used for Example 4, but using a prevention protocol. As in Example 4, the outcome measure, determining the effect of the treatment on the prevention of mechanical allodynia, was the PWT test, using von Frey filaments. The measurements were taken at day −3, before treatment or induction of neuropathic pain associated with DPN, and again at the end of the study period (day 28).\nThe rats were randomised into treatment groups as follows, all having an average body weight of about 225 g. • 1. Group 1: naïve rats (n=6) • 2. Group 2: STZ only (n=8) • 3. Group 3: STZ plus vehicle (n=8) • 4. […] Group 5: STZ plus sulindac 0.7% (n=8) • 6. Group 6: STZ plus lidocaine cream 5% (n=8)\nEach treatment group was subjected to a PWT assessment at day −3 in order to determine the baseline of mechanical allodynia.\nFor those rats in the lidocaine treatment group, lidocaine cream was applied only once to both hind paws of the rats 30 min before the final PWT measurement on day 28. On day 0, neuropathic pain associated with DPN was induced with the administration of STZ, and the blood glucose was checked on day 3."}, "COX-1": {"target": "COX-1 (Homo sapiens, UniProt P23219)", "sequence (P23219 24-599)": "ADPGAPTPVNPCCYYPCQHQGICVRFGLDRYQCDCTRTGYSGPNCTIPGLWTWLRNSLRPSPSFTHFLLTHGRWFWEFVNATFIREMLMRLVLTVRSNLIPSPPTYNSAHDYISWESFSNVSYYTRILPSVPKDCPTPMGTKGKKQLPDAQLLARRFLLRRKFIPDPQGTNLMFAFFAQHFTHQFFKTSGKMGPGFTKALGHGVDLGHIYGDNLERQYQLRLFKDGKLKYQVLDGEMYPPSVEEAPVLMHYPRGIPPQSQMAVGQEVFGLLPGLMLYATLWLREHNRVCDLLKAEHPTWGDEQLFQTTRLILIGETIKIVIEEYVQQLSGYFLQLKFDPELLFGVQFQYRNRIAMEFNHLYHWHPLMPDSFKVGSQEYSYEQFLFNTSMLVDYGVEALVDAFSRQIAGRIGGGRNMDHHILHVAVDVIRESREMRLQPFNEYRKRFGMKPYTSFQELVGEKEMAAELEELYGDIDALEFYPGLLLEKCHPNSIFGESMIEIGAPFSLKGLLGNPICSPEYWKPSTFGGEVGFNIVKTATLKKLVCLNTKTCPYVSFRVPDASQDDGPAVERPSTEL", "details": "cited from earlier work"}, "[1]": {"tested_on": "mice with NTG-induced chronic migraine", "assay": "von Frey PWT, NTG-induced chronic migraine model", "type": "in vivo, mouse", "details": "mouse, in vivo", "from_the_text": "The NTG-induced chronic migraine model was used as described previously."}, "chronic pain after LASIK": {"tested_on": "chronic pain after LASIK", "assay": "PS to outer surface of eyelid in a subject after kerato-refractive surgery (LASIK)", "details": "in vivo"}, "[2]": {"tested_on": "BALB/c mice infected with HSV-1 KOS strain (PHN)", "type": "in vivo, mouse", "details": "mouse, in vivo", "experimental": "PHN was induced in mice by infecting them with the HSV-1 KOS strain virus and following established protocols (Ou et al, Front Immunol, 14, 1026269, 2023; Takasaki et al, Anesthesiology, 96 (5), 1168-74, 2002).\n; Reckitt Benckiser). Three days later, HSV-1 (10^6 PFUs in 20 μl PBS) was inoculated on the shin of the right hind paw (5×5 mm) after scarification with sandpaper. The virus was applied directly to the scarified area. The contralateral hind paw was without inoculation. Mock infection was performed using the same virus inactivated by heating at 60° C. for 1 h.\nIn a second experiment, the effect of the parent compound, sulindac, was tested in the same mouse model. Five days post-inoculation, sulindac (as a 5% gel), or vehicle control were administered topically onto both hind paws of mice three times a day for three days.\nPHN was induced in mice by infecting them with the HSV-1 KOS strain virus in line with the previous Examples.\nFive days post-inoculation, NO-sulindac (Formula XLIV) (as a 5% gel), or vehicle control were administered topically onto both hind paws of mice three times a day for three days."}, "mice": {"tested_on": "mice", "details": "mouse, in vivo"}, "[3]": {"tested_on": "mice with vincristine-induced neuropathic pain", "assay": "von Frey mechanical allodynia, vincristine-induced pain, topical PS", "details": "mouse, in vivo", "from_the_text": "(§1) Paw withdrawn, licking or shaking were considered positive responses."}, "[4]": {"tested_on": "mice with paclitaxel-induced central sensitization", "assay": "cold allodynia (acetone test), paclitaxel-induced central sensitization", "details": "mouse, in vivo", "experimental": "To determine the outcome of treatment, assessment of mechanical allodynia was performed. […] Both methods of assessing allodynia are described in Toma W, et al. Neuropharmacology 2017; 117:305-15. Mechanical and cold allodynia are determined at least one day apart in the same animal.\nThe acetone test was used. Briefly, acetone was applied onto the plantar surface of each hind paw. The time each mouse spent licking, lifting, and/or shaking the hind paw recorded over 60 seconds was the score for cold allodynia."}, "in vivo": {"assay": "in vivo", "details": "rat", "experimental": "Approximately 800 μL of blood were collected through cardiac puncture and immediately centrifuged.\nTissue samples were harvested using separate dissection instruments for each tissue sample to avoid cross contamination, and snap frozen. The levels of the test drug were determined by HPLC.\nAs previously described (Wen et al, 2019), each plasma sample was mixed with double volume of acetonitrile and centrifuged at 13,200 rpm for 15 min. Tissue samples were weighed, ddH2O (100-300 μL, depending on tissue weight) was added, and they were homogenized. Following addition of acetonitrile (twice the volume of the homogenate), the mixture was sonicated for 10 min, centrifuged at 13,200 rpm for 15 min, and analyzed by HPLC, as reported (Wen et al, 2019).\nIt was performed following a previously reported method (Xie et al, 2012). Briefly, the HPLC system consisted of a Waters Alliance 2695 Separations Module (Milford, MA, USA) equipped with a Waters 2998 photodiode array detector (328 nm) and a Thermo Hypersil BDS C18 column (150×4.6 mm, particle size 3 μm). The mobile phase consisted of a gradient between solvent A (formic acid, CH3CN, H2O (0.1:4.9:95 v/v/v)) and solvent B (CH3CN) at a flow rate of 1 mL·min−1 at 30° C. We applied gradient elution from 30 to 100% solvent B from 0-6 min, and it was maintained at 100% solvent B until 8 min.\nThe methods are identical to those used in Example 27.\nA single dose of PN or PSA was given by oral gavage to groups of three Sprague-Dawley rats, which were euthanized and dissected according to the early example. The oral gavage solution of phosphonaproxen was prepared by dissolving in 10% DMSO and then suspending it in corn oil."}, "[5]": {"type": "in vivo, mouse", "details": "mouse, in vivo", "experimental": "At 0.5, 1, 3, 5, 12, 18, and 24 h, mice (n=4-5 mice/time point) were euthanized with CO2 inhalation. Blood was drawn immediately after death. Tissues, including paw skin, paw muscle, leg muscle, the sciatic nerve and lumbar DRG bilaterally were dissected quickly, immediately frozen in liquid nitrogen and stored at −80° C. until analyzed."}, "[6]": {"assay": "drug levels in proximal and distal half of the sciatic nerve after topical PS", "type": "in vivo, mouse", "details": "mouse, in vivo", "experimental": "In a separate experiment we studied 8 mice with paclitaxel-induced PN treated with PS 8% ointment 3×/d for 2 wks. Mice were euthanized as above 30 minutes after the last dose of PS. From these mice we harvested both sciatic nerves dividing each into proximal and distal halves, and combined the corresponding halves of every two animals for assay of drug levels."}, "COX-2": {"target": "COX-2 (Homo sapiens, UniProt P35354)", "sequence (P35354 18-604)": "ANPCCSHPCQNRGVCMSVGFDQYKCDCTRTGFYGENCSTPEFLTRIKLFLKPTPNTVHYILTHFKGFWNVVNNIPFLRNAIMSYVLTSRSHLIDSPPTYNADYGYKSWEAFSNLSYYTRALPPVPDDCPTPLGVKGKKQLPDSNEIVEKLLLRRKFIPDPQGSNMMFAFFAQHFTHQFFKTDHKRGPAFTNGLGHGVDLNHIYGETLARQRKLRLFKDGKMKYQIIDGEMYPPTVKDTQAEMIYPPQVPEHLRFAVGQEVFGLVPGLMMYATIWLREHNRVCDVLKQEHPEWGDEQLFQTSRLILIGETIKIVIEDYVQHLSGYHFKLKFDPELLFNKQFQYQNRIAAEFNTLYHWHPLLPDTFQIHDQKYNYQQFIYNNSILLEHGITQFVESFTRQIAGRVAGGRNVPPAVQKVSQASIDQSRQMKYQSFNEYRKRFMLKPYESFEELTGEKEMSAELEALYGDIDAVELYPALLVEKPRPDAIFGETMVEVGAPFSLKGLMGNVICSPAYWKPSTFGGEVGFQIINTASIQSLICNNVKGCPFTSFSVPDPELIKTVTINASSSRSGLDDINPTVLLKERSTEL", "details": "cited from earlier work"}, "[7]": {"tested_on": "mice with oxaliplatin-induced neuropathic pain", "assay": "von Frey mechanical allodynia, oxaliplatin-induced pain, topical PS", "details": "mouse, in vivo", "from_the_text": "as §1"}, "corneal neuropathic pain": {"tested_on": "corneal neuropathic pain", "assay": "preliminary in vivo evidence, PS to the ocular surface, corneal neuropathic pain"}, "[8]": {"tested_on": "mice given paclitaxel (CIPN prevention)", "assay": "von Frey PWT, prevention of paclitaxel-induced CIPN pain, topical PS", "details": "mouse, in vivo", "experimental": "In order to establish CIPN, paclitaxel is administered at 10 mg/kg intraperitoneally into C57/BL mice. […] This dosing regimen of paclitaxel produces pain associated with CIPN with time courses that are similar to those of pain after paclitaxel administration in cancer patients.\nThe first doses were administered 2 days prior to the first administration of paclitaxel."}, "[9]": {"tested_on": "mice with chronic constriction injury of the left sciatic nerve (PTPN)", "assay": "von Frey PWT, chronic constriction injury (CCI) model of PTPN, topical compounds", "type": "in vivo, mouse", "details": "Q922, PSA 5% on left hind paw 3x/day 6 days"}},
  "note": "Like-named read-outs stand apart in the source and are kept apart here.",
  "data": [
    {"smiles": "CCOP(=O)(OCC)OCCCCOC(=O)CC1=C(C)/C(=C/c2ccc([S+](C)[O-])cc2)c2ccc(F)cc21", "note": "(stereo not shown) [PS, phosphosulindac]", "values": [
      {"measurement": "von Frey, gm mean ± SEM", "setting": "STZ-diabetic rats", "value": "33.1 ± 1.6", "unit": "gm"},
      {"measurement": "inhibition of COX-1", "setting": "COX-1", "value": "does not inhibit"},
      {"measurement": "PWT, g Mean ± SEM, Baseline", "setting": "[1]", "value": "2.28 ± 0.34", "unit": "g"},
      {"measurement": "PWT, g Mean ± SEM, Day 11", "setting": "[1]", "value": "1.18 ± 0.10", "unit": "g"},
      {"measurement": "effect on chronic pain after LASIK", "setting": "chronic pain after LASIK", "value": "dramatically reduced chronic pain"},
      {"measurement": "PWT, g Mean ± SEM, Post-inoculation, day 5", "setting": "[2]", "value": "0.53 ± 0.06", "unit": "g"},
      {"measurement": "PWT, g Mean ± SEM, Post-treatment", "setting": "[2]", "value": "0.93 ± 0.06", "unit": "g"},
      {"measurement": "PWT, g Mean ± SEM, Pre-inoculation", "setting": "[2]", "value": "1.27 ± 0.19", "unit": "g"},
      {"measurement": "topical or systemic side effects", "setting": "mice", "value": "no topical or systemic side effects"},
      {"measurement": "mechanical allodynia score (von Frey)", "setting": "[3]", "value": "1.5 ± 0.09", "unit": "g"},
      {"measurement": "cold allodynia score (acetone test, time licking/lifting/shaking over 60 s)", "setting": "[4]", "value": "3.1±0.4"},
      {"measurement": "detection in the systemic circulation", "setting": "in vivo", "value": "No PS was detected"},
      {"measurement": "T1/2", "setting": "in vivo; po, 250 mg/kg", "value": 3.3, "unit": "h"},
      {"measurement": "detection in the systemic circulation", "setting": "[5]", "value": "no PS was detected"},
      {"measurement": "concentration in distal half of the sciatic nerve, mean ± SEM", "setting": "[6]", "value": "17.0 ± 5.1", "unit": "µM"},
      {"measurement": "concentration in proximal half of the sciatic nerve, mean ± SEM", "setting": "[6]", "value": "0.9 ± 0.3", "unit": "µM"},
      {"measurement": "inhibition of COX-2", "setting": "COX-2", "value": "does not inhibit"},
      {"measurement": "mechanical allodynia score (von Frey) after PS treatment", "setting": "[7]", "value": "1.8 ± 0.09", "unit": "g"},
      {"measurement": "analgesic effect on corneal neuropathic pain", "setting": "corneal neuropathic pain", "value": "striking analgesic effect"},
      {"measurement": "PWT, gm Mean ± SEM", "setting": "[8]", "value": "0.4 ± 0.01", "unit": "gm"},
      {"measurement": "mechanical allodynia score (von Frey)", "setting": "[8]", "value": "1.2 ± 0.15", "unit": "g"}
    ]},
    {"smiles": "CCOP(=O)(NCCCCNC(=O)c1ccccc1SC/C=C(\\C)CC/C=C(\\C)CCC=C(C)C)OCC", "note": "[Q922]", "values": [
      {"measurement": "PWT, g Mean ± SEM", "setting": "[9]", "value": "1.48 ± 0.36", "unit": "g"}
    ]}
  ]
}
